# Results taken from US10746637B2, “Aldehyde scavenging agent for retrieving elements from fixed tissue” (University of Houston System, priority 2013, dated 2020).
# Read-outs that look alike come from different tables or passages of the source.
# What was measured:
# RNA = experiment: Recovery of RNA from formalin-fixed paraffin-embedded tissue samples (FIG. 30)
# Angiotensin I = experiment: Mass spectrometry of formalin treated Angiotensin I after heating with aldehyde scavenging compounds; details: 5% compound, 95° C., 45 minutes
# Procedure: Angiotensin I is treated with formalin at room temperature for 48 hours. […] Mass-spectrometry is used to analyze the compositions of the Angiotensin I before and after treatment by each compound. Samples of Angiotensin I before (FIG. 11A) and after (FIG. 11B) formalin treatments are used as the controls for the experiment. Peaks at m/z 1296 represent unmodified Angiotensin I. Peaks at m/z 1308 represent Angiotensin I with 1 methylene unit. Peaks at m/z 1320 represent Angiotensin I with 2 methylene units. Peaks at m/z 1338 represent Angiotensin I with 1 methylene unit and 1 hydroxymethylene group. Peaks at m/z 1350 represent Angiotensin I with 2 methylene units and 1 hydroxymethylene group.
# Collagen IV [1] = experiment: Immunohistochemical staining of Collagen IV on formalin fixed paraffin embedded mouse brain sections after antigen retrieval with formaldehyde scavengers and enhancer; design: key: − being non-reactive; Immunoreactivity was scored on a scale of − to +++; Immunoreactivity was scored on a scale of − to +++; +++ being highly reactive; details: 45 minutes at 95° C.
# Procedure: 12-month-old C57Bl6J mice were housed under controlled environment conditions on a condition al 12 hour light dark cycle. Following sacrifice, brains were post-fixed in 4% paraformaldehyde for 72 hours at […] and then transferred to 70% ethanol solution where they were stored at 4° C. Tissue was paraffin-processed using convention dehydration and embedding, and then sectioned at 5 μm intervals.
# Tissues were deparaffinized and rehydrated. Slides were placed in a plastic Coplin jar containing either distilled water or a combination of formaldehyde scavengers in combination with an enhancer. Jars were covered with a loose fitting screw cap and heated in a pressure cooker for 45 minutes at 95° C. After heating, the Coplin jars were removed and allowed to cool and rinsed in TBST for five minutes.
# Immunohistochemical staining was performed using a three-step immunostaining technique using the ABC method. Briefly, all incubations were performed as follows: 1) primary antibodies were incubated overnight at 4° C., 2) secondary antibodies were incubated for 10 minutes at room temperature, 3) streptavidin-conjugated enzyme was incubated for 10 minutes at room temperature, 4) peroxidase substrate was incubated for 1 minute.
# collagen IV [2] = test system: collagen IV
# GFAP = experiment: Microscope images of GFAP immunostaining after antigen retrieval (FIGS. 15-18)
# Collagen IV [3] = experiment: Immunohistochemical staining of Collagen IV after antigen retrieval with 0.05% maleic acid and cooling in a second solution; design: species or system mouse; key to Result (immunoreactivity, Collagen IV staining): − being non-reactive; Immunoreactivity was scored on a scale of − to +++; Immunoreactivity was scored on a scale of − to +++; +++ being highly reactive; details: for immunostaining of Collagen IV after antigen retrieval with maleic acid and cooling to room temperature: FIGS. 31A-31C, compared to dH2O; for Result (immunoreactivity, Collagen IV staining): Table 9, retrieval with 0.05% maleic acid 45 minutes at 95° C., then cooling to room temperature in the named solution (10% guanidine or 2,2,2-trifluoroethanol in water)
# Procedure: 12-month-old […] mice were housed under controlled environment conditions on a condition al 12 hour light dark cycle. Following sacrifice, brains were post-fixed in 4% paraformaldehyde for 72 hours at 4° C. and then transferred to 70% ethanol solution where they were stored at 4° C. Tissue was paraffin-processed using convention dehydration and embedding, and then sectioned at 5 μm intervals. Tissues were deparaffinized and rehydrated. […] Jars were covered with a loose fitting screw cap and heated in a pressure cooker for 45 minutes at 95° C. After heating, the Coplin jars were removed and slides were allowed to cool to room temperature in either 10% guanidine or 2,2,2-trifluoroethanol in water and rinsed in TBST for five minutes. Immunohistochemical staining was performed using a three-step immunostaining technique using the ABC method. Briefly, all incubations were performed as follows: 1) primary antibodies were incubated overnight at 4° C., 2) secondary antibodies were incubated for 10 minutes at room temperature, 3) streptavidin-conjugated enzyme was incubated for 10 minutes at room temperature, 4) peroxidase substrate was incubated for 1 minute.
# blood vessels = experiment: Antigen retrieval in paraformaldehyde fixed vascular tissue, visualization of blood vessels; details: paraformaldehyde fixed tissue heated in solution of compound (FIGS. 4A-4E)
# Description: Paraformaldehyde fixed tissue samples are heated in solutions of compounds prepared as described in Example 1 and the blood vessels in the tissue are visualized.
# collagen IV [4] = experiment: Antigen retrieval and immunodetection of collagen IV in paraformaldehyde fixed tissues (general method); details: 0.05% maleic anhydride pretreatment; compared with TBST, low pH sodium citrate, pepsin (FIGS. 2A-2D)
# Procedure: The solution is heated to about 70° C. to about 95° C. for about 30 minutes. The ensuing chemical reaction enables the unmasking or retrieval of the chemical epitopes. The formaldehyde-fixed tissue is placed into the heated solution for about 30 minutes and then washed. The tissues can then be stained to detect the protein of interest.
# [5] = compared to control buffer (FIG. 30)
# [6] = microscope images, figure legends
# [7] = Table 2, aniline compounds, FFPE mouse brain sections
smiles,measurement,setting,value
"NO [1% Hydroxylamine, Hydroxylamine]",recovery of RNA from formalin-fixed paraffin-embedded tissue samples,RNA; [5],enhanced recovery of RNA
same,retrieval of formalin adducts of Angiotensin I,Angiotensin I,significant retrieval of formalin adducts
same,"Result (immunoreactivity, Collagen IV staining)","Collagen IV [1]; Table 3, 1% hydroxylamine alone or with 4-aminophenol, concentrations in label",+
same,"Result (immunoreactivity, Collagen IV staining)","Collagen IV [1]; Table 4, 1% hydroxylamine alone or with aniline, concentrations in label",+
same,"Result (immunoreactivity, Collagen IV staining)","Collagen IV [1]; Table 5, 0.5% hydroxylamine alone or with aniline, concentrations in label",+
same,immunostaining of Collagen IV after antigen retrieval,collagen IV [2]; [6],enhanced immunostaining
"NOCc1ccccc1 [1% O-Benzylhydroxylamine, O-Benzylhydroxylamine]",recovery of RNA from formalin-fixed paraffin-embedded tissue samples,RNA; [5],enhanced recovery of RNA
same,"Result (immunoreactivity, Collagen IV staining)","Collagen IV [1]; Table 6, 1% O-benzylhydroxylamine alone or with aniline, concentrations in label",+
same,"Result (immunoreactivity, Collagen IV staining)","Collagen IV [1]; Table 7, 0.5% O-benzylhydroxylamine alone or with aniline, concentrations in label",+
same,immunostaining of Collagen IV after antigen retrieval,collagen IV [2]; [6],enhanced immunostaining
"Sc1nc(S)nc(S)n1 [1,3,5-triazine-2,4,6-trithiol]",immunostaining of GFAP after antigen retrieval,GFAP; [6],enhanced immunostaining
CCCC(N)O (centres unmarked) [1-amino-1-butanol],immunostaining of Collagen IV after antigen retrieval,collagen IV [2]; [6],enhanced immunostaining
"OCC(F)(F)F [2,2,2-Trifluoroethanol]",immunostaining of Collagen IV after antigen retrieval with maleic acid and cooling to room temperature,Collagen IV [3],enhanced immunostaining
same,"Result (immunoreactivity, Collagen IV staining)",Collagen IV [3],++
"CC1=C(C)C(=O)OC1=O [2,3-dimethylmaleic anhydride]",antigen retrieval with visualization of the blood vessels,blood vessels,successful antigen retrieval
COc1ccc(N)c(C(=O)O)c1 [2-Amino-5-methoxybenzoic acid],recovery of RNA from formalin-fixed paraffin-embedded tissue samples,RNA; [5],enhanced recovery of RNA
same,"Result (immunoreactivity, Collagen IV staining)",Collagen IV [1]; [7],−
"CC(N)(CO)CO [2-amino-2-methyl-1,3-propanediol]",immunostaining of Collagen IV after antigen retrieval,collagen IV [2]; [6],enhanced immunostaining
O=C1CCCN1 [2-pyrrolidinone],immunostaining of Collagen IV after antigen retrieval,collagen IV [2]; [6],enhanced immunostaining
Nc1ccc(O)cc1 [4-Aminophenol],recovery of RNA from formalin-fixed paraffin-embedded tissue samples,RNA; [5],enhanced recovery of RNA
same,"Result (immunoreactivity, Collagen IV staining)",Collagen IV [1]; [7],++
same,immunostaining of Collagen IV after antigen retrieval,collagen IV [2]; [6],enhanced immunostaining
CCOc1ccc(N)cc1 [4-Ethoxyaniline],"Result (immunoreactivity, Collagen IV staining)",Collagen IV [1]; [7],+
same,immunostaining of Collagen IV after antigen retrieval,collagen IV [2],enhanced immunostaining
Nc1ccccc1 [Aniline],recovery of RNA from formalin-fixed paraffin-embedded tissue samples,RNA; [5],enhanced recovery of RNA
same,"Result (immunoreactivity, Collagen IV staining)",Collagen IV [1]; [7],++
same,immunostaining of Collagen IV after antigen retrieval,collagen IV [2]; [6],enhanced immunostaining
N=C(N)N [Guanidine],amount of Angiotensin I with 2 methylene units (m/z 1320),Angiotensin I,does not exhibit any impact
same,content of Angiotensin I with 1 methylene unit and 1 hydroxymethylene group (m/z 1338),Angiotensin I,minimal ability to retrieve
same,immunostaining of Collagen IV after antigen retrieval with maleic acid and cooling to room temperature,Collagen IV [3],enhanced immunostaining
same,"Result (immunoreactivity, Collagen IV staining)",Collagen IV [3],++
same,immunostaining of Collagen IV after antigen retrieval,collagen IV [2]; [6],enhanced immunostaining
NC(=O)C[C@H](N)C(=O)O [L-asparagine],immunostaining of Collagen IV after antigen retrieval,collagen IV [2]; [6],enhanced immunostaining
NOCC(=O)O [O-(carboxymethyl)hydroxylamine],recovery of RNA from formalin-fixed paraffin-embedded tissue samples,RNA; [5],enhanced recovery of RNA
same,immunostaining of Collagen IV after antigen retrieval,collagen IV [2]; [6],enhanced immunostaining
CCON [O-ethylhydroxylamine],recovery of RNA from formalin-fixed paraffin-embedded tissue samples,RNA; [5],enhanced recovery of RNA
same,immunostaining of Collagen IV after antigen retrieval,collagen IV [2]; [6],enhanced immunostaining
Nc1ccc(S(=O)(=O)O)cc1 [Sulfanilic acid],recovery of RNA from formalin-fixed paraffin-embedded tissue samples,RNA; [5],enhanced recovery of RNA
same,"Result (immunoreactivity, Collagen IV staining)",Collagen IV [1]; [7],++
same,immunostaining of Collagen IV after antigen retrieval,collagen IV [2]; [6],enhanced immunostaining
CC(=O)CC(N)=O [acetoacetamide],immunostaining of Collagen IV after antigen retrieval,collagen IV [2]; [6],enhanced immunostaining
O=C1CC(=O)NC(=O)N1 [barbituric acid],immunostaining of Collagen IV after antigen retrieval,collagen IV [2],enhanced immunostaining
"O=C(O)CC(O)(CC(=O)O)C(=O)O [citric acid, reference compound]",amount of Angiotensin I with 2 methylene units (m/z 1320),Angiotensin I,significantly reduce
same,content of Angiotensin I with 1 methylene unit and 1 hydroxymethylene group (m/z 1338),Angiotensin I,significantly reduce
same,retrieval of formalin adducts of Angiotensin I,Angiotensin I,significant retrieval of formalin adducts
NCCS [cysteamine],immunostaining of GFAP after antigen retrieval,GFAP; [6],enhanced immunostaining
N[C@@H](CS)C(=O)O [cysteine],immunostaining of GFAP after antigen retrieval,GFAP; [6],enhanced immunostaining
same,retrieval of formalin adducts of Angiotensin I,Angiotensin I,significant retrieval of formalin adducts
"CC1(C)CC(=O)CC(=O)C1 [dimedone, 5,5-dimethyl-1,3-cylohexanedione]",immunostaining of Collagen IV after antigen retrieval,collagen IV [2]; [6],enhanced immunostaining
"O=C(O)/C=C/C(=O)O [fumaric acid, reference compound]",antigen retrieval with visualization of the blood vessels,blood vessels,significant reduction in activity
O=C1NCCN1 [imidazolidone],amount of Angiotensin I with 2 methylene units (m/z 1320),Angiotensin I,significantly reduce
same,content of unmodified Angiotensin I (m/z 1296),Angiotensin I,higher content of unmodified Angiotensin I
O=C1C=CC(=O)O1 [maleic anhydride],antigen retrieval and immunodetection of collagen IV,collagen IV [4],Superior antigen retrieval and immunodetection
same,antigen retrieval with visualization of the blood vessels,blood vessels,successful antigen retrieval
COc1ccc(N)cc1 [p-Anisidine],recovery of RNA from formalin-fixed paraffin-embedded tissue samples,RNA,enhanced recovery of RNA
same,"Result (immunoreactivity, Collagen IV staining)",Collagen IV [1]; [7],++
same,immunostaining of Collagen IV after antigen retrieval,collagen IV [2],enhanced immunostaining
Nc1ccc(N)cc1 [p-Phenylenediamine],"Result (immunoreactivity, Collagen IV staining)",Collagen IV [1]; [7],+
same,immunostaining of Collagen IV after antigen retrieval,collagen IV [2],enhanced immunostaining
Cc1ncc(CO)c(CN)c1O [pyridoxamine],immunostaining of Collagen IV after antigen retrieval,collagen IV [2]; [6],enhanced immunostaining
O=S([O-])O.[Na+] [sodium bisulfite],immunostaining of GFAP after antigen retrieval,GFAP,enhanced immunostaining
O=S([O-])S(=O)(=O)[O-].[Na+].[Na+] [sodium metabisulfite],immunostaining of GFAP after antigen retrieval,GFAP; [6],enhanced immunostaining
"O=C1CCC(=O)O1 [succinic anhydride, reference compound]",antigen retrieval with visualization of the blood vessels,blood vessels,no vasculature is visible
O=C1CCC(=O)N1 [succinimide],immunostaining of Collagen IV after antigen retrieval,collagen IV [2]; [6],enhanced immunostaining
O=C(OC[C@H]1O[C@@H](OC(=O)c2cc(O)c(O)c(OC(=O)c3cc(O)c(O)c(O)c3)c2)[C@H](OC(=O)c2cc(O)c(O)c(OC(=O)c3cc(O)c(O)c(O)c3)c2)[C@@H](OC(=O)c2cc(O)c(O)c(OC(=O)c3cc(O)c(O)c(O)c3)c2)[C@@H]1OC(=O)c1cc(O)c(O)c(OC(=O)c2cc(O)c(O)c(O)c2)c1)c1cc(O)c(O)c(OC(=O)c2cc(O)c(O)c(O)c2)c1 [tannic acid],immunostaining of Collagen IV after antigen retrieval,collagen IV [2]; [6],enhanced immunostaining
